Measured values as given in ChEMBL document CHEMBL2417394, “Exquisite selectivity for human toll-like receptor 8 in substituted furo[2,3-c]quinolines” (J Med Chem, 2013).
Calls of active or inactive are those of the source. The calls are words filed in the database; no cut-off is given here.

Target: T1, Nucleotide-binding oligomerization domain-containing protein 1 (Homo sapiens) (UniProt Q9Y239)
T1 sequence (whole entry): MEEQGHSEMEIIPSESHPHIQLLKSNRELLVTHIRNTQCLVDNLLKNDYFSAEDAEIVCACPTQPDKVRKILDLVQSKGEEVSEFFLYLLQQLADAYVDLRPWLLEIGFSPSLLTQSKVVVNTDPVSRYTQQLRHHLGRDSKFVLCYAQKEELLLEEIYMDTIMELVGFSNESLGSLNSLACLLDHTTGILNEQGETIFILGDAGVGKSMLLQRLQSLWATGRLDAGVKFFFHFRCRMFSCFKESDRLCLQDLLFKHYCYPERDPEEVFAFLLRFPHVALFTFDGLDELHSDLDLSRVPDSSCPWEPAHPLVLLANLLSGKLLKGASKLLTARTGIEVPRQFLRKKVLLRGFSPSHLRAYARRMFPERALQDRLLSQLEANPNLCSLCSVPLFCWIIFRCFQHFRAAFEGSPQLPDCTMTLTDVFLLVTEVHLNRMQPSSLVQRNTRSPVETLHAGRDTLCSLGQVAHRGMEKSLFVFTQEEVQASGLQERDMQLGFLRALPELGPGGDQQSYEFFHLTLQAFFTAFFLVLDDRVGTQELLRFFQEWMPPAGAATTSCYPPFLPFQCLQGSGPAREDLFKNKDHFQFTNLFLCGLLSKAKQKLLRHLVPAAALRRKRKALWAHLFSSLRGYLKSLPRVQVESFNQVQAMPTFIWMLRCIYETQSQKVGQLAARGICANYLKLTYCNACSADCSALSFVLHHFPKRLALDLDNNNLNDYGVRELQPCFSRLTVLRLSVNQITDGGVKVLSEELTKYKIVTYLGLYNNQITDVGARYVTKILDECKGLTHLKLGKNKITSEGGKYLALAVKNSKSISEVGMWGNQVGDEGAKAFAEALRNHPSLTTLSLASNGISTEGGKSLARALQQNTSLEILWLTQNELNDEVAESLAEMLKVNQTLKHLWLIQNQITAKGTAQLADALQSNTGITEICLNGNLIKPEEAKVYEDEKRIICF
Assay: Modulation of NOD1 (unknown origin)

NCCc1cc2c(o1)c(N)nc1ccccc12
Activity: Active
